According to article PMC4076021 (ACS chemical biology, 2014):
Read-outs that look alike come from different tables or passages of the source.

What was measured:
H3K4Me2 in LNCaP cells = assay: Western blot of histone H3 methylation in LNCaP cells; format: cell-based
GST-LSD1 [1] = target: T1, GST-LSD1 (Homo sapiens, UniProt O60341); assay: MassSQUIRM LSD1 inhibition assay; format: biochemical; settings: 50 µM inhibitor, 30 min, 215 nM GST-LSD1
H3K4Me2 in H460 cells = assay: Western blot of H3K4Me2 in H460 cells; format: cell-based; settings: H460, 48 h, compared with LNCaP
[2] = tested on: immature primary cortical neurons; assay: Oxidative toxicity; format: cell-based, rat; settings: 0.5 µM, 5 mM HCA, MTT
GST-LSD1 [3] = target: T1, GST-LSD1; assay: biochemical; format: biochemical; settings: for kinact/KI: read-out: kinact/Ki(inact)
GST-LSD1 [4] = target: T1, GST-LSD1; settings: cited from earlier work
H460 cells [5] = assay: [3H] thymidine incorporation proliferation assay in H460 cells; format: cell-based; settings: H460, 48 h, 80 µM
H460 cells [6] = tested on: H460 cells
[7] = mechanism-based inactivation, extrapolated to zero substrate

Cl.Cl.NNCCc1ccc(NC(=O)CCCc2ccccc2)cc1 [12d]
H3K4Me2 band density time course (in words) (H3K4Me2 in LNCaP cells; 10 µM, normalized to vehicle, 3 biological replicates): Statistically significant increases were observed at 6, 24, 48, 72, and 96 h but not at 30 min and 12 h | changes in H3K4Me1, H3K4Me3, unmethylated H3K4, H3K9Me2, H3K9Ac, H3K36Me3 (in words) (H3K4Me2 in LNCaP cells; 0.4–10 µM, 48 h): no significant reproducible changes | effect on LSD1 protein levels (in words) (H3K4Me2 in LNCaP cells; 0.4–10 µM, 48 h): no discernible effect | H3K4Me2 band density (in words) (H3K4Me2 in LNCaP cells; 48 h, 3 µM and 10 µM, three biological replicates): Statistically significant increases | LSD1 inhibition in MassSQUIRM assay (in words) (GST-LSD1 [1]): very substantial LSD1 inhibition | effect on H3K4Me2 levels (in words) (H3K4Me2 in H460 cells): comparable dose-response effects | survival of neurons after HCA treatment (in words) [2]: significantly enhanced survival

NNCCOc1ccccc1 [10a]
KI (inactivation) (GST-LSD1 [3]): 44 ± 9.7 µM | kinact (GST-LSD1 [3]): 0.0025 s⁻¹ | kinact/KI (GST-LSD1 [3]): 56.7 M⁻¹ s⁻¹

CN(C(=O)CCCc1ccccc1)c1ccc(CCNN)cc1.O=C(O)C(=O)O [12l]
H3K4Me2 changes (in words) (H3K4Me2 in LNCaP cells; 48 h, concentrations up to 10 µM): did not show changes in H3K4Me2 | fold weaker LSD1 inhibitor than bizine (GST-LSD1 [3]): ~ 30 fold | kinact (GST-LSD1 [3]): 0.004 s⁻¹ | KI (inactivation) (GST-LSD1 [3]; [7]): 2 ± 0.73 µM | kinact/KI (GST-LSD1 [3]): 2000 M⁻¹ s⁻¹

NNCCc1ccccc1 [phenelzine, reference compound]
H3K4Me2 changes (in words) (H3K4Me2 in LNCaP cells; 48 h, concentrations up to 40 µM): did not induce H3K4Me2 changes | LSD1 inhibition in MassSQUIRM assay (in words) (GST-LSD1 [1]): negligible impact on LSD1 inhibition | concentration needed to extinguish LSD1 activity under MassSQUIRM conditions (GST-LSD1 [4]): greater than 10 mM | reduction in 3H-thymidine incorporation (H460 cells [5]): < 50%

NNCCCCc1ccccc1 [9h]
KI (inactivation) (GST-LSD1 [3]): 22 ± 3 µM | kinact (GST-LSD1 [3]): 0.002 s⁻¹ | kinact/KI (GST-LSD1 [3]): 91.7 M⁻¹ s⁻¹

NNCCc1ccc(NC(=O)Cc2ccccc2)cc1 [12b]
KI (inactivation) (GST-LSD1 [3]): 0.37 ± 0.033 µM | kinact (GST-LSD1 [3]): 0.00333 s⁻¹ | kinact/KI (GST-LSD1 [3]): 9000 M⁻¹ s⁻¹

NNCCc1ccc(NC(=O)/C=C/c2ccccc2)cc1 [compound 13]
kinact (GST-LSD1 [3]): 0.00283 s⁻¹ | kinact/KI (GST-LSD1 [3]): 28300 M⁻¹ s⁻¹

Cc1[nH]c2ccccc2c1CCNCc1ccc(/C=C/C(=O)NO)cc1 [LBH-589]
combination effect on inhibition of H460 cell proliferation (in words) (H460 cells [6]): additive to synergistic effects

NNCCc1ccc(NC(=O)CCCc2ccc(Cl)cc2)cc1 [12f]
kinact (GST-LSD1 [3]): 0.00283 s⁻¹ | kinact/KI (GST-LSD1 [3]): 18300 M⁻¹ s⁻¹

Nc1ccccc1NC(=O)c1ccc(CNc2nccc(-c3cccnc3)n2)cc1 [MGCD0103]
combination effect on inhibition of H460 cell proliferation (in words) (H460 cells [6]): moderate antagonism | combination index (CI) (H460 cells [6]): > 1

NNCCc1ccc(NC(=O)c2ccccc2)cc1 [12a]
KI (inactivation) (GST-LSD1 [3]): 0.28 ± 0.11 µM | kinact (GST-LSD1 [3]): 0.00317 s⁻¹ | kinact/KI (GST-LSD1 [3]): 11700 M⁻¹ s⁻¹

CN(C)NCCc1ccccc1 [9b]
IC50 (GST-LSD1 [3]): > 100 µM

Nc1ncn([C@@H]2O[C@H](CO)[C@@H](O)[C@H]2O)c(=O)n1 [azacytidine]
combination effect on inhibition of H460 cell proliferation (in words) (H460 cells [6]): moderate antagonism

NNCCc1ccc(N(Cc2ccccc2)C(=O)CCCc2ccccc2)cc1 [12m]
kinact (GST-LSD1 [3]): 0.00367 s⁻¹ | KI (inactivation) (GST-LSD1 [3]; [7]): 1.6 ± 0.49 µM | kinact/KI (GST-LSD1 [3]): 2330 M⁻¹ s⁻¹

NNCCCOc1ccccc1 [10b]
KI (inactivation) (GST-LSD1 [3]): 12 ± 2.1 µM | kinact (GST-LSD1 [3]): 0.00367 s⁻¹ | kinact/KI (GST-LSD1 [3]): 300 M⁻¹ s⁻¹

CNNCCc1ccccc1.Cl.Cl [9a]
LSD1 inhibitory action (in words) (GST-LSD1 [3]): negated LSD1 inhibitory action

NNCCCN1CCOCC1 [compound 11]
IC50 (GST-LSD1 [3]): > 100 µM | LSD1 inhibitory action (in words) (GST-LSD1 [3]): not compatible with LSD1 inhibition

NNCCc1ccc(NC(=O)CCc2ccccc2)cc1 [12c]
kinact (GST-LSD1 [3]): 0.004 s⁻¹ | kinact/KI (GST-LSD1 [3]): 15300 M⁻¹ s⁻¹

NNCCc1ccc(NC(=O)CCc2c[nH]c3ccccc23)cc1 [15a]
kinact (GST-LSD1 [3]): 0.0035 s⁻¹ | kinact/KI (GST-LSD1 [3]): 16700 M⁻¹ s⁻¹

COc1ccc(CCCNN)cc1.Cl.Cl [9e]
KI (inactivation) (GST-LSD1 [3]): 8 ± 3.5 µM | LSD1 inhibitory action (in words) (GST-LSD1 [3]): made little difference | kinact (GST-LSD1 [3]): 0.0025 s⁻¹ | kinact/KI (GST-LSD1 [3]): 317 M⁻¹ s⁻¹

NNCCc1ccc(NC(=O)CCCCc2ccccc2)cc1 [12e]
kinact (GST-LSD1 [3]): 0.00367 s⁻¹ | KI (inactivation) (GST-LSD1 [3]; [7]): 0.26 ± 0.11 µM | kinact/KI (GST-LSD1 [3]): 14300 M⁻¹ s⁻¹

NNCCc1ccc(NC(=O)CCCc2ccc([N+](=O)[O-])cc2)cc1 [12i]
kinact (GST-LSD1 [3]): 0.0035 s⁻¹ | kinact/KI (GST-LSD1 [3]): 12300 M⁻¹ s⁻¹

Nc1ccccc1NC(=O)c1ccc(CNC(=O)OCc2cccnc2)cc1 [MS-275]
combination effect on inhibition of H460 cell proliferation (in words) (H460 cells [6]): additive to synergistic effects

CNNCCCc1ccc(OC)cc1 [9f]
IC50 (GST-LSD1 [3]): > 100 µM

CC(/C=C/C(=O)NO)=C\[C@@H](C)C(=O)c1ccc(N(C)C)cc1 [TSA]
combination effect on inhibition of H460 cell proliferation (in words) (H460 cells [6]): moderate antagonism | combination index (CI) (H460 cells [6]): > 1
